Reference: patent US20100137313A1 (ASTRAZENECA AB, priority 2008, published 2010)

Target: S. pneumoniae Topoisomerase IV ATPase (ParE) (Streptococcus pneumoniae serotype 4, UniProt Q59961)
Assay: S. pneumoniae Topoisomerase IV ATPase inhibition
Format: biochemical
Conditions: values marked * are an average of two or more data points, read-out: % Inh (13 μM) of S. pneumoniae Topoisomerase IV ATPase
Method: S. pneumoniae Topoisomerase IV ATPase Inhibition Activity: Compounds may be tested for inhibition of S. pneumoniae ParE ATPase activity using an ammonium molybdate/malachite green-based phosphate detection assay (Lanzetta, P. A., L. J. Alvarez, P. S. Reinach, and O. A. Candia, 1979, 100: 95-97). Assays are performed in multiwell plates in 30 μl reactions containing: 20 mM Tris buffer pH 8.0, 50 mM ammonium acetate, 8.0 mM magnesium chloride, 0.5 mM ethylenediaminetetraacetic acid, 5% glycerol, 5 mM 1,4-Dithio-DL-threitol, 0.005% Brij-35, 5 μg/ml sheared salmon sperm DNA, 1.25 nM S. pneumoniae ParE, 160 μM ATP, and test compound in dimethylsulfoxide. Reactions are quenched with 30 μl of ammonium molybdate/malachite green detection reagent containing 1.2 mM malachite green hydrochloride, 8.5 mM ammonium molybdate tetrahydrate, and 1 M hydrochloric acid. Plates are read in an absorbance plate reader at 650 nm and percent inhibition values are calculated using dimethylsulfoxide (2%)-containing reactions as 0% inhibition and EDTA-containing ([…]) reactions as 100% inhibition controls. An IC50 measurement of compound potency for each compound can be determined from reactions performed in the presence of 10 different compound concentrations.
Many of the compounds of the invention were tested in an assay substantially similar to the assays described above for measuring the inhibition of E.coli GyrB ATPase, E. coli Topoisomerase IV ATPase, S. aureus GyrB ATPase, and S. pneumoniae Topoisomerase IV ATPase, and had IC50 values of <200 μM in one or more assays.

Sequence of S. pneumoniae Topoisomerase IV ATPase (ParE) (Q59961 whole entry): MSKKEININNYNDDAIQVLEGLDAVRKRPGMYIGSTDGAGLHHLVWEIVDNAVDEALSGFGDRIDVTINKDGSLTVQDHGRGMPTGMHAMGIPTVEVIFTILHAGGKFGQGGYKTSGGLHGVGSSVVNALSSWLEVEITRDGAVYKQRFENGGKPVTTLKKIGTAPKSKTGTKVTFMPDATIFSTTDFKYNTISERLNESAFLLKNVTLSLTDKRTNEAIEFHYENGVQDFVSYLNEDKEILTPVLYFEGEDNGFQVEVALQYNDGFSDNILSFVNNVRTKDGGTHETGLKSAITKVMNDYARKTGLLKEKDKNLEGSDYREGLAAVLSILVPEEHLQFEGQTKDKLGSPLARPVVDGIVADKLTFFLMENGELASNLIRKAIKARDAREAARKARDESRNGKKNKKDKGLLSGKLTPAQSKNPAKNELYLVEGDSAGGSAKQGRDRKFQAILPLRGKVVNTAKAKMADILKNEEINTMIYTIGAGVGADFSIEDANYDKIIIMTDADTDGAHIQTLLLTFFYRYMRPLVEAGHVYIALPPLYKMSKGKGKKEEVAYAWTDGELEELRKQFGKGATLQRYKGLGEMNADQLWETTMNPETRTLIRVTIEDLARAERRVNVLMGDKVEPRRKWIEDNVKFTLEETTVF

Compound | inhibition at 13 µM
Fc1ccc(Nc2ncc(-c3cncnc3)c(-n3nccn3)n2)cc1Cl [Example 86, N-(3-chloro-4-fluorophenyl)-4-(2H-1,2,3-triazol-2-yl)-5,5′-bipyrimidin-2-amine] | 91.1%
CONC(=O)c1cncc(-c2cnc(Nc3ccc(F)c(Cl)c3)nc2-n2ccc(-c3ccsc3)n2)c1 [Example 548, 5-{2-[(3-chloro-4-fluorophenyl)amino]-4-[3-(thiophen-3-yl)-1H-pyrazol-1-yl]pyrimidin-5-yl}-N-methoxypyridine-3-carboxamide] | 95%
CCOC(=O)c1cncc(-c2cnc(Nc3ccc(F)c(Cl)c3)nc2N2CCOCC2)c1 [Example 144, ethyl 5-(2-(3-chloro-4-fluorophenylamino)-4-morpholinopyrimidin-5-yl)nicotinate] | 76.4%
CC(C)(C)OC(=O)NCCNc1nc(Nc2ccc(F)c(Cl)c2)ncc1-c1cncnc1 [Example 41, tert-butyl N-[2-[[2-[(3-chloro-4-fluorophenyl)amino]-5-pyrimidin-5-ylpyrimidin-4-yl]amino]ethyl] carbamate] | 72.7%
OC1CCN(c2nc(Nc3ccc(F)c(Cl)c3)ncc2-c2cncnc2)CC1 [Example 60, 1-[2-[(3-chloro-4-fluorophenyl)amino]-5-pyrimidin-5-ylpyrimidin-4-yl]piperidin-4-ol] | 72.3%
CCOC(=O)c1cncc(-c2cnc(Nc3ccc(F)c(Cl)c3)nc2N2CCC(O)C2)c1 (centres unmarked) [Example 123, ethyl 5-[2-[(3-chloro-4-fluorophenyl)amino]-4-(3-hydroxypyrrolidin-1-yl)pyrimidin-5-yl]pyridine-3-carboxylate] | 66.4%
CC(Oc1ncc(-c2cnc(Nc3ccc(F)c(Cl)c3)nc2-n2ccc(C(F)(F)F)n2)cc1C(=O)O)c1ccncc1 (centres unmarked) [Example 793, 5-{2-[(3-chloro-4-fluorophenyl)amino]-4-[3-(trifluoromethyl)-1H-pyrazol-1-yl]pyrimidin-5-yl}-2-[1-(pyridin-4-yl)ethoxy]pyridine-3-carboxylic acid] | 100%
O=C(O)/C=C/c1cccc(-c2cnc(Nc3ccc(F)c(Cl)c3)nc2-n2cc(-c3ccccn3)cn2)c1 [Example 567, (2E)-3-(3-{2-[(3-chloro-4-fluorophenyl)amino]-4-[4-(pyridin-2-yl)-1H-pyrazol-1-yl]pyrimidin-5-yl}phenyl)prop-2-enoic acid] | 100%
CC(C)OCCNc1nc(Nc2ccc(F)c(Cl)c2)ncc1-c1cncc(C(=O)O)c1 [Example 236, 5-[2-[(3-chloro-4-fluorophenyl)amino]-4-(2-propan-2-yloxyethyolamino)pyrimidin-5-yl]pyridine-3-carboxylic acid] | 73.6%
O=C(O)/C=C/c1cccc(-c2cnc(Nc3ccc(F)c(Cl)c3)nc2NCCc2cn[nH]c2)c1 [Example 268, (2E)-3-[3-(2-[(3-chloro-4-fluorophenyl)amino]-4-{[2-(1H-pyrazol-4-yl)ethyl]amino}pyrimidin-5-yl)phenyl]prop-2-enoic acid] | 83%
CCOC(=O)c1cncc(-c2cnc(Nc3ccc(F)c(Cl)c3)nc2NCC2CCCO2)c1 (centres unmarked) [Example 108, ethyl 5-[2-[(3-chloro-4-fluorophenyl)amino]-4-(oxolan-2-ylmethylamino)pyrimidin-5-yl]pyridine-3-carboxylate] | -18.1%
CCOC(=O)/C=C/c1cccc(-c2cnc(Nc3ccc(F)c(Cl)c3)nc2N[C@@H]2CCOC2)c1 [Example 169, (R,E)-ethyl 3-(3-(2-(3-chloro-4-fluorophenylamino)-4-(tetrahydrofuran-3-ylamino)pyrimidin-5-yl)phenyl)acrylate] | 34.2%
CCOC(=O)/C=C/c1cccc(-c2cnc(Nc3ccc(F)c(Cl)c3)nc2NC(COC)COC)c1 [Example 173, (E)-ethyl 3-(3-(2-(3-chloro-4-fluorophenylamino)-4-(1,3-dimethoxypropan-2-ylamino)pyrimidin-5-yl)phenyl)acrylate] | 34.7%
COCCOc1cccc(Nc2ncc(-c3cccc(/C=C/C(=O)O)c3)c(N3CCOCC3)n2)c1 [Example 457] | 28%
